# Laboratory results from patent US12577273B2, “Small molecule modulators of gut bacterial bile acid metabolism” (priority 2019, dated 2026).
# “And” between values parts separate entries of the source, which are not always exact repeats. Equal values may be shown once. “Also recorded” adds a separate entry of the source.
# Experiments:
# B. theta BSH [1] = target: T1, B. theta BSH (Bacteroides thetaiotaomicron, UniProt Q8A600); test: Inhibitor screen using rBSH, B. theta BSH (UPLC-MS % deconjugation); conditions: 100 μM inhibitor; for inhibition of B. theta BSH (in words): 30 min preincubation, monitored over 21 hours; for % deconjugation of TDCA / % deconjugation of TUDCA / % deconjugation of TβMCA / % deconjugation of TCA: 200 nM rBSH, replicates 1-3
# [2] = system: BSH activity in conventional mouse feces; test: Screen of inhibitors in conventional mouse feces; type: biochemical; conditions: 20 μM inhibitor, 30 min, then GCDCA-d4 100 μM, 18 hours
# Experimental: Screen of Inhibitors in Conventional Mouse Feces. […] The tubes were then frozen in dry ice for 5 mins and upon thawing were diluted with an equal volume of methanol. […] The supernatant was removed into a clean eppendorf tube and centrifuged again. […] The concentration of product detected from these assays was reported directly.
# B. longum BSH [3] = target: T2, B. longum BSH (Bifidobacterium longum, UniProt Q9KK62); test: Inhibitor screen using rBSH, B. longum BSH (UPLC-MS % deconjugation); type: biochemical, Bifidobacterium longum SBT2928; set-up: His6 (C); made in house; host or cells: Escherichia coli (as for the B. theta enzyme); conditions: 100 μM inhibitor; for % deconjugation of TCA / % deconjugation of TDCA / % deconjugation of TUDCA / % deconjugation of TβMCA: 200 nM rBSH, bile acid pool, replicates 1-3
# T2 sequence (Q9KK62 1-317): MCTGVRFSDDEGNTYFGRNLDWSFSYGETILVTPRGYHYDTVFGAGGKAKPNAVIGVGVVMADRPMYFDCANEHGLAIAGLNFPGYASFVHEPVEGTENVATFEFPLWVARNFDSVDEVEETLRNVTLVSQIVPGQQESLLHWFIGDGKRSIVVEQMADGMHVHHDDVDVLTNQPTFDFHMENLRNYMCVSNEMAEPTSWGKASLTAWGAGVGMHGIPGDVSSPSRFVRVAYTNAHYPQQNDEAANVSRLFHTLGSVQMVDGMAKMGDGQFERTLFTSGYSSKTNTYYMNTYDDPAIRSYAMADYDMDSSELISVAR
# Experimental: B. longum rBSH. Recombinant BSH from B. longum SBT2928 was expressed and purified as above, except 0.25 mM IPTG was used for protein expression and 1 mM TCEP for protein purification.
# Inhibitor Screen Using rBSHs.
# B. theta cultures = test: BSH inhibition in growing B. theta cultures, single substrate (GUDCA or TUDCA); type: cell-based, Bacteroides thetaiotaomicron; conditions: 10 μM inhibitor; for BSH inhibition in B. theta cultures compared to 7 (in words): 100 μM TUDCA; for deconjugation of GUDCA in growing B. theta cultures (in words): 100 μM GUDCA
# [4] = system: three Gram negative and three Gram positive strains of human gut bacteria; test: BSH inhibition in growing cultures of six gut bacterial strains (overall statements); type: cell-based; conditions: 100 μM inhibitor, 100 μM conjugated bile acid mixture
# B. theta BSH [5] = target: T1, B. theta BSH; test: Enzyme kinetics (ninhydrin assay), B. theta BSH; type: biochemical; conditions: for deconjugation of substrate by purified B. theta BSH (in words): ninhydrin-based assay
# Experimental: (§1) Enzyme Kinetics. […] This solution was preheated to 37° C. in a water bath. 20 μL of a conjugated bile acid in DMSO at appropriate concentration was preheated to 37° C. in a water bath and added to the above solution. […] The cloudy solution was centrifuged at 4,200 g for 15 mins. 10 μL of the supernatant was added to 190 μL of ninhydrin mix (15 mL of 1% [wt/vol] ninhydrin in 0.5 M sodium citrate at pH 5.5, 36 mL glycerol and 6 mL 0.5 M sodium citrate buffer at pH 5.5) and the mixture was heated to 100° C. in a BioRad thermocycler for 18 mins. The obtained solution was cooled at 4° C. for 20 mins and absorbance was measured at 570 nm using a spectrophotometer (Molecular Devices).
# B. longum BSH [6] = target: T2, B. longum BSH; test: Enzyme kinetics (ninhydrin assay), B. longum BSH; conditions: substrate of B. longum BSH
# Experimental: as §1
# [7] = FIG. 2a, 2 hours, bile acid pool
# [8] = FIG. 2a, 2 hours, pool of four tauro conjugated bile acids 25 μM each
# [9] = FIG. 2a, 21 hours, bile acid pool
# [10] = Supplementary FIG. 3a, 5 hours, bile acid pool
# [11] = Table 1, substrate of B. Theta BSH, PBS pH 7.5, 37° C.
# [12] = Table 3, substrate of B. theta BSH, mean ± SEM, n = 3
compound,measurement,setting,value
C[C@H](CCN=C=S)[C@H]1CC[C@H]2[C@@H]3[C@H](O)C[C@@H]4C[C@H](O)CC[C@]4(C)[C@H]3CC[C@]12C [Compound 1],inhibition of B. theta BSH (in words),B. theta BSH [1],modest inhibition
same,% deconjugation of TDCA,B. theta BSH [1]; [7],51.40% and 46.10% and 43.43%
same,% deconjugation of TUDCA,B. theta BSH [1]; [7],37.96% and 35.92% and 33.34%
same,% deconjugation of TβMCA,B. theta BSH [1]; [7],3.72% and 3.29% and 3.28%
same,% deconjugation of TCA,B. theta BSH [1]; [8],0.12% and 0.17% and 0.29%
same,% deconjugation of TCA,B. theta BSH [1]; [9],0.12% and 0.17% and 0.15%
same,% deconjugation of TDCA,B. theta BSH [1]; [9],45.18% and 51.87% and 45.19%
same,% deconjugation of TUDCA,B. theta BSH [1]; [9],34.40% and 41.24% and 37.45%
same,% deconjugation of TβMCA,B. theta BSH [1]; [9],3.18% and 4.28% and 3.11%
same,% deconjugation of TCA,B. theta BSH [1]; [10],0.25% and 0.00% and 0.21%
same,% deconjugation of TDCA,B. theta BSH [1]; [10],52.56% and 51.54% and 45.63%
same,% deconjugation of TUDCA,B. theta BSH [1]; [10],38.73% and 40.02% and 35.99%
same,% deconjugation of TβMCA,B. theta BSH [1]; [10],4.42% and 4.47% and 3.37%
same,BSH activity in resuspended conventional mouse feces (in words),[2],moderate BSH inhibition; also recorded: decreased deconjugation
same,inhibition of B. longum BSH (in words),"B. longum BSH [3]; 2 h, 5 h and 21 h timepoints",modest inhibition
same,% deconjugation of TCA,"B. longum BSH [3]; FIG. 2b, 2 hours",0.10% and 0.89% and 0.43%
same,% deconjugation of TDCA,"B. longum BSH [3]; FIG. 2b, 2 hours",7.25% and 4.34% and 2.20%
same,% deconjugation of TUDCA,"B. longum BSH [3]; FIG. 2b, 2 hours",2.12% and 1.09% and 0.61%
same,% deconjugation of TβMCA,"B. longum BSH [3]; FIG. 2b, 2 hours",2.49% and 0.05% and 0.03%
same,% deconjugation of TCA,"B. longum BSH [3]; FIG. 2b, 21 hours",9.02% and 3.00% and 8.03%
same,% deconjugation of TDCA,"B. longum BSH [3]; FIG. 2b, 21 hours",23.33% and 14.91% and 20.42%
same,% deconjugation of TUDCA,"B. longum BSH [3]; FIG. 2b, 21 hours",4.57% and 2.48% and 3.66%
same,% deconjugation of TβMCA,"B. longum BSH [3]; FIG. 2b, 21 hours",0.21% and 0.13% and 0.28%
same,% deconjugation of TCA,"B. longum BSH [3]; Supplementary FIG. 3b, 5 hours",4.13% and 4.57% and 4.31%
same,% deconjugation of TDCA,"B. longum BSH [3]; Supplementary FIG. 3b, 5 hours",9.85% and 11.26% and 11.96%
same,% deconjugation of TUDCA,"B. longum BSH [3]; Supplementary FIG. 3b, 5 hours",2.44% and 2.49% and 2.64%
same,% deconjugation of TβMCA,"B. longum BSH [3]; Supplementary FIG. 3b, 5 hours",0.10% and 0.11% (2×)
C#CC(=O)CC[C@@H](C)[C@H]1CC[C@H]2[C@@H]3[C@H](O)C[C@@H]4C[C@H](O)CC[C@]4(C)[C@H]3CC[C@]12C [Compound 4],% deconjugation of TDCA,B. theta BSH [1]; [7],97.26% and 96.13% and 94.56%
same,% deconjugation of TUDCA,B. theta BSH [1]; [7],94.07% and 91.62% and 89.81%
same,% deconjugation of TβMCA,B. theta BSH [1]; [7],32.07% and 29.34% and 22.69%
same,% deconjugation of TCA,B. theta BSH [1]; [8],0.47% and 1.15% and 0.30%
same,% deconjugation of TCA,B. theta BSH [1]; [9],1.50% and 0.85% and 1.80%
same,% deconjugation of TDCA,B. theta BSH [1]; [9],95.87% and 95.61% and 96.21%
same,% deconjugation of TUDCA,B. theta BSH [1]; [9],98.54% and 97.31% and 97.80%
same,% deconjugation of TβMCA,B. theta BSH [1]; [9],47.65% and 32.41% and 43.47%
same,% deconjugation of TCA,B. theta BSH [1]; [10],0.40% and 1.92% and 1.29%
same,% deconjugation of TDCA,B. theta BSH [1]; [10],99.59% and 99.50% and 99.01%
same,% deconjugation of TUDCA,B. theta BSH [1]; [10],98.43% and 98.54% and 97.17%
same,% deconjugation of TβMCA,B. theta BSH [1]; [10],26.17% and 45.65% and 37.57%
CC(=O)CC[C@@H](C)[C@H]1CC[C@H]2[C@@H]3[C@H](O)C[C@@H]4C[C@H](O)CC[C@]4(C)[C@H]3CC[C@]12C [Compound 8],inhibition of B. theta BSH (in words),B. theta BSH [1],did not display BSH inhibition; also recorded: did not display BSH inhibition against either recombinant protein or B. theta cultures
same,BSH inhibition in B. theta cultures compared to 7 (in words),B. theta cultures,less potent inhibitors of B. theta BSH than compound 7; also recorded: did not display BSH inhibition against either recombinant protein or B. theta cultures
C[C@H](CCC(=O)CF)[C@H]1CC[C@H]2[C@@H]3[C@H](O)C[C@@H]4C[C@H](O)CC[C@]4(C)[C@H]3C[C@H](O)[C@]12C [Compound 9],deconjugation of GUDCA in growing B. theta cultures (in words),B. theta cultures,significantly diminished activity to inhibit B. theta BSH
same,deconjugation of GUDCA in growing B. theta cultures (in words),B. theta cultures; listed as compound 9,significant deconjugation was observed
same,BSH inhibition in B. theta cultures compared to 7 (in words),B. theta cultures,less potent inhibitors of B. theta BSH than compound 7; also recorded: significantly reduced ability to inhibit BSH deconjugation
"Cc1cc2nc3c(=O)[nH]c(=O)nc-3n(C[C@H](O)[C@H](O)[C@H](O)CO)c2cc1C [Riboflavin, riboflavin, reference compound]",inhibition of B. theta BSH (in words),B. theta BSH [1],did not display any inhibitory activity
same,deconjugation / BSH inhibition in cultures of the six bacterial strains (in words),[4],neither riboflavin nor CAPE displayed significant inhibitory activity against any of the Gram negative strains
"C[C@H](CCC(=O)NCCS(=O)(=O)O)[C@H]1CC[C@H]2[C@@H]3[C@H](O)C[C@@H]4C[C@H](O)CC[C@]4(C)[C@H]3C[C@H](O)[C@]12C [TCA, taurocholic acid]",deconjugation of substrate by purified B. theta BSH (in words),B. theta BSH [5],did not deconjugate
same,Kcat,"B. longum BSH [6]; Table 1, PBS pH 7.5, 37° C.",1.82 s⁻¹
"C[C@H](CCC(=O)NCCS(=O)(=O)O)[C@H]1CC[C@H]2[C@@H]3[C@H](O)C[C@@H]4C[C@H](O)CC[C@]4(C)[C@H]3CC[C@]12C [TCDCA, taurochenodeoxycholic acid]",Kcat,B. theta BSH [5]; [11],1.69 s⁻¹
same,Km,B. theta BSH [5]; [11],2.86 mM
same,Kcat,B. theta BSH [5]; [12],0.0717 ± 0.01 s⁻¹
same,Km,B. theta BSH [5]; [12],2.9 ± 1.8 mM
same,Kcat,"B. longum BSH [6]; Table 1, PBS pH 7.5, 37° C.",1.807 s⁻¹
same,Km,"B. longum BSH [6]; Table 1, PBS pH 7.5, 37° C.",7.75 mM
same,Kcat,"B. longum BSH [6]; Table 3, mean ± SEM, n = 3",0.0767 ± 0.01 s⁻¹
same,Km,"B. longum BSH [6]; Table 3, mean ± SEM, n = 3",7 ± 2.3 mM
"C[C@H](CCC(=O)NCCS(=O)(=O)O)[C@H]1CC[C@H]2[C@@H]3CC[C@@H]4C[C@H](O)CC[C@]4(C)[C@H]3C[C@H](O)[C@]12C [TDCA, taurodeoxycholic acid]",Kcat,B. theta BSH [5]; [11],1.682 s⁻¹
same,Km,B. theta BSH [5]; [11],3.35 mM
same,Kcat,B. theta BSH [5]; [12],0.215 ± 0.01 s⁻¹
same,Km,B. theta BSH [5]; [12],3.4 ± 0.6 mM
same,deconjugation of substrate by purified B. theta BSH (in words),B. theta BSH [5],preference for TDCA deconjugation
same,Kcat,"B. longum BSH [6]; Table 1, PBS pH 7.5, 37° C.",1.695 s⁻¹
same,Kcat,"B. longum BSH [6]; Table 3, mean ± SEM, n = 3",0.0583 ± 0.0017 s⁻¹
"C[C@H](CCC(=O)NCCS(=O)(=O)O)[C@H]1CC[C@H]2[C@@H]3[C@@H](O)C[C@@H]4C[C@H](O)CC[C@]4(C)[C@H]3CC[C@]12C [TUDCA, tauroursodeoxycholic acid]",Kcat,B. theta BSH [5]; [11],1.807 s⁻¹
same,Km,B. theta BSH [5]; [11],8.23 mM
same,Kcat,B. theta BSH [5]; [12],0.255 ± 0.013 s⁻¹
same,Km,B. theta BSH [5]; [12],8.2 ± 1 mM
same,deconjugation of substrate by purified B. theta BSH (in words),B. theta BSH [5],displayed a preference
same,Kcat,"B. longum BSH [6]; Table 1, PBS pH 7.5, 37° C.",1.608 s⁻¹
same,Kcat,"B. longum BSH [6]; Table 3, mean ± SEM, n = 3",0.015 ± 0.0033 s⁻¹
